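Cultured in 96-well plates, cells were exposed to test compound for 48 hours across five concentrations. GI50 = concentration required for 50% inhibition of growth. The concentration for full growth arrest is given as TGI.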
Legend:
Test in all cases: growth of human tumour cells (NCI), 48 h
786-0 renal = system: 786-0 renal
A498 renal = system: A498 renal
A549 NSCLC = system: A549 NSCLC
ACHN renal = system: ACHN renal
BT-549 breast = system: BT-549 breast
CAKI-1 renal = system: CAKI-1 renal
CCRF-CEM leukemia = system: CCRF-CEM leukemia
COLO 205 colon = system: COLO 205 colon
DU-145 prostate = system: DU-145 prostate
EKVX NSCLC = system: EKVX NSCLC
HCC-2998 colon = system: HCC-2998 colon
HCT-116 colon = system: HCT-116 colon
HCT-15 colon = system: HCT-15 colon
HL-60(TB) leukemia = system: HL-60(TB) leukemia
HOP-62 NSCLC = system: HOP-62 NSCLC
HOP-92 NSCLC = system: HOP-92 NSCLC
HS 578T breast = system: HS 578T breast
HT29 colon = system: HT29 colon
IGROV1 ovarian = system: IGROV1 ovarian
K-562 leukemia = system: K-562 leukemia
KM12 colon = system: KM12 colon
LOX IMVI melanoma = system: LOX IMVI melanoma
M14 melanoma = system: M14 melanoma
MALME-3M melanoma = system: MALME-3M melanoma
MCF7 breast = system: MCF7 breast
MDA-MB-231 breast = system: MDA-MB-231 breast
MDA-MB-435 = system: MDA-MB-435
MOLT-4 leukemia = system: MOLT-4 leukemia
NCI-H226 lung = system: NCI-H226 lung
NCI-H23 lung = system: NCI-H23 lung
NCI-H460 lung = system: NCI-H460 lung
NCI-H522 lung = system: NCI-H522 lung
NCI/ADR-RES ovarian = system: NCI/ADR-RES ovarian
OVCAR-3 ovarian = system: OVCAR-3 ovarian
OVCAR-4 ovarian = system: OVCAR-4 ovarian
OVCAR-5 ovarian = system: OVCAR-5 ovarian
OVCAR-8 ovarian = system: OVCAR-8 ovarian
PC-3 prostate = system: PC-3 prostate
RPMI-8226 leukemia = system: RPMI-8226 leukemia
RXF 393 renal = system: RXF 393 renal
SF-268 CNS = system: SF-268 CNS
SF-295 CNS = system: SF-295 CNS
SF-539 CNS = system: SF-539 CNS
SK-MEL-2 melanoma = system: SK-MEL-2 melanoma
SK-MEL-28 melanoma = system: SK-MEL-28 melanoma
SK-MEL-5 melanoma = system: SK-MEL-5 melanoma
SK-OV-3 ovarian = system: SK-OV-3 ovarian
SN12C renal = system: SN12C renal
SNB-19 CNS = system: SNB-19 CNS
SNB-75 CNS = system: SNB-75 CNS
SW-620 colon = system: SW-620 colon
T-47D breast = system: T-47D breast
TK-10 renal = system: TK-10 renal
U251 CNS = system: U251 CNS
UACC-257 melanoma = system: UACC-257 melanoma
UACC-62 melanoma = system: UACC-62 melanoma
UO-31 renal = system: UO-31 renal

COc1cccc(-c2nc(-c3ccc(NC(=O)OC(C)C)cc3)[nH]c2-c2ccnc(Br)c2)c1 was tested, and the GI50 (786-0 renal) was 0.974 µM, the TGI (786-0 renal) was over 100 µM and the GI50 (A498 renal) was 1.2 µM. The TGI (A498 renal) was 6.29 µM, the GI50 (A549 NSCLC) was 2.96 µM and the TGI (A549 NSCLC) was over 100 µM. The GI50 (ACHN renal) was 2.7 µM, the TGI (ACHN renal) was over 100 µM and the GI50 (BT-549 breast) was 2.19 µM. For the same compound, the TGI (BT-549 breast) was over 100 µM, the GI50 (CAKI-1 renal) was 2.49 µM and the TGI (CAKI-1 renal) was over 100 µM. For the same compound, the GI50 (CCRF-CEM leukemia) was 2.22 µM, the TGI (CCRF-CEM leukemia) was over 100 µM and the GI50 (COLO 205 colon) was 3.26 µM. It also gave a TGI (COLO 205 colon) of over 100 µM, a GI50 (DU-145 prostate) of 3.33 µM and a TGI (DU-145 prostate) of over 100 µM. The GI50 (EKVX NSCLC) was 2.45 µM, the TGI (EKVX NSCLC) was 10.3 µM and the GI50 (HCC-2998 colon) was 2.71 µM. The TGI (HCC-2998 colon) was over 100 µM, the GI50 (HCT-116 colon) was 2.68 µM and the TGI (HCT-116 colon) was over 100 µM. The GI50 (HCT-15 colon) was 1.19 µM, the TGI (HCT-15 colon) was 4.79 µM and the GI50 (HL-60(TB) leukemia) was 1.38 µM. It also gave a TGI (HL-60(TB) leukemia) of 4.06 µM, a GI50 (HOP-62 NSCLC) of 2.92 µM and a TGI (HOP-62 NSCLC) of over 100 µM. It also gave a GI50 (HOP-92 NSCLC) of 3.19 µM, a TGI (HOP-92 NSCLC) of 8.29 µM and a GI50 (HS 578T breast) of 0.308 µM. The TGI (HS 578T breast) was 1.69 µM, the GI50 (HT29 colon) was 2.37 µM and the TGI (HT29 colon) was over 100 µM. The GI50 (IGROV1 ovarian) was 3.54 µM, the TGI (IGROV1 ovarian) was over 100 µM and the GI50 (K-562 leukemia) was 1.88 µM. It also gave a TGI (K-562 leukemia) of over 100 µM, a GI50 (KM12 colon) of 2.41 µM and a TGI (KM12 colon) of over 100 µM. It also gave a GI50 (LOX IMVI melanoma) of 1.49 µM, a TGI (LOX IMVI melanoma) of 3.36 µM and a GI50 (M14 melanoma) of 3.06 µM. For the same compound, the TGI (M14 melanoma) was over 100 µM, the GI50 (MALME-3M melanoma) was 2.23 µM and the TGI (MALME-3M melanoma) was 7 µM. The GI50 (MCF7 breast) was 1.59 µM, the TGI (MCF7 breast) was 8.15 µM and the GI50 (MDA-MB-231 breast) was 3.85 µM. The TGI (MDA-MB-231 breast) was over 100 µM, the GI50 (MDA-MB-435) was 3.11 µM and the TGI (MDA-MB-435) was over 100 µM. The GI50 (MOLT-4 leukemia) was 1.64 µM, the TGI (MOLT-4 leukemia) was 56 µM and the GI50 (NCI-H226 lung) was 2.46 µM. For the same compound, the TGI (NCI-H226 lung) was 87.5 µM, the GI50 (NCI-H23 lung) was 2.61 µM and the TGI (NCI-H23 lung) was 9.54 µM. It also gave a GI50 (NCI-H460 lung) of 2.99 µM, a TGI (NCI-H460 lung) of over 100 µM and a GI50 (NCI-H522 lung) of 2.48 µM. It also gave a TGI (NCI-H522 lung) of 9.01 µM, a GI50 (NCI/ADR-RES ovarian) of 2.85 µM and a TGI (NCI/ADR-RES ovarian) of over 100 µM. It also gave a GI50 (OVCAR-3 ovarian) of 2.83 µM, a TGI (OVCAR-3 ovarian) of over 100 µM and a GI50 (OVCAR-4 ovarian) of 3.09 µM. The TGI (OVCAR-4 ovarian) was over 100 µM, the GI50 (OVCAR-5 ovarian) was 4.43 µM and the TGI (OVCAR-5 ovarian) was over 100 µM. It also gave a GI50 (OVCAR-8 ovarian) of 3.12 µM, a TGI (OVCAR-8 ovarian) of over 100 µM and a GI50 (PC-3 prostate) of 2.62 µM. For the same compound, the TGI (PC-3 prostate) was over 100 µM, the GI50 (RPMI-8226 leukemia) was 0.389 µM and the TGI (RPMI-8226 leukemia) was 2.21 µM. It also gave a GI50 (RXF 393 renal) of 0.282 µM, a TGI (RXF 393 renal) of 0.87 µM and a GI50 (SF-268 CNS) of 3.35 µM. It also gave a TGI (SF-268 CNS) of over 100 µM, a GI50 (SF-295 CNS) of 0.256 µM and a TGI (SF-295 CNS) of 0.64 µM. It also gave a GI50 (SF-539 CNS) of 1.53 µM, a TGI (SF-539 CNS) of 5.83 µM and a GI50 (SK-MEL-2 melanoma) of 2.33 µM. It also gave a TGI (SK-MEL-2 melanoma) of 7.03 µM, a GI50 (SK-MEL-28 melanoma) of 2.55 µM and a TGI (SK-MEL-28 melanoma) of over 100 µM. It also gave a GI50 (SK-MEL-5 melanoma) of 1.88 µM, a TGI (SK-MEL-5 melanoma) of 3.65 µM and a GI50 (SK-OV-3 ovarian) of 3.85 µM. The TGI (SK-OV-3 ovarian) was over 100 µM, the GI50 (SN12C renal) was 2.94 µM and the TGI (SN12C renal) was over 100 µM. It also gave a GI50 (SNB-19 CNS) of 3.19 µM, a TGI (SNB-19 CNS) of over 100 µM and a GI50 (SNB-75 CNS) of 0.567 µM. The TGI (SNB-75 CNS) was over 100 µM, the GI50 (SW-620 colon) was 3.32 µM and the TGI (SW-620 colon) was over 100 µM. For the same compound, the GI50 (T-47D breast) was 2.08 µM, the TGI (T-47D breast) was 7.64 µM and the GI50 (TK-10 renal) was 3.61 µM. The TGI (TK-10 renal) was over 100 µM, the GI50 (U251 CNS) was 1.69 µM and the TGI (U251 CNS) was over 100 µM. The GI50 (UACC-257 melanoma) was 3.15 µM, the TGI (UACC-257 melanoma) was over 100 µM and the GI50 (UACC-62 melanoma) was 1.98 µM. For the same compound, the TGI (UACC-62 melanoma) was 4.87 µM, the GI50 (UO-31 renal) was 2.51 µM and the TGI (UO-31 renal) was over 100 µM.
